Laboratory results taken from US9113629B2, “4-amino-6-(4-substituted-phenyl)-picolinates and 6-amino-2-(4-substituted-phenyl)-pyrimidine-4-carboxylates and their use as herbicides” (DOW AGROSCIENCES LLC, priority 2013, dated 2015).
Where two headings read alike, the source gives them in different places.

How the values were obtained:
[1] = test system: Key Broadleaf Weed and Crop Species; experiment: Post-emergent Test II herbicidal activity (Table 5); assay type: in vivo; settings: post-emergence, 336 h, post-emergent, 14 days after application; for pest or weed control at 70 g/ha: 70 g ai/ha; for pest or weed control at 140 g/ha: 140 g ai/ha
In short: (§1)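 Greenhouse post-emergent assay: seedlings (first/second true leaf) in Metro-Mix 360 were sprayed at 187 L/ha at a top rate plus twofold dilutions down to 1/16×; solvent-blank controls were included. Percent visual injury was read at 14 d.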

[2] = test system: Key Grass and Sedge Weeds as well as Grass Crops; experiment: Post-emergent Test II herbicidal activity (Table 6); assay type: in vivo; settings: post-emergence, 336 h; for pest or weed control at 70 g/ha: application rate 70 g ai/ha; for pest or weed control at 140 g/ha: application rate 140 g ai/ha
In short: as §1

[3] = ABUTH: velvetleaf (Abutilon theophrasti), read-out: Visual Growth Reduction (%) 14 Days After Application ABUTH
[4] = AMARE: redroot pigweed (Amaranthus retroflexus), read-out: Visual Growth Reduction (%) 14 Days After Application AMARE
[5] = BRSNN: oilseed-rape, canola (Brassica napus), read-out: Visual Growth Reduction (%) 14 Days After Application BRSNN
[6] = CHEAL: lambsquarters (Chenopodium album), read-out: Visual Growth Reduction (%) 14 Days After Application CHEAL
[7] = EPHHL: wild poinsettia (Euphorbia heterophylla), read-out: Visual Growth Reduction (%) 14 Days After Application EPHHL
[8] = HELAN: sunflower (Helianthus annuus), read-out: Visual Growth Reduction (%) 14 Days After Application HELAN
[9] = VIOTR: wild pansy (Viola tricolor), read-out: Visual Growth Reduction (%) 14 Days After Application VIOTR
[10] = Triticum aestivum, TRZSS (wheat), read-out: Visual Growth Reduction (%) 14 Days After Application, TRZSS
[11] = CYPES: yellow nutsedge (Cyperus esculentus), read-out: Visual Growth Reduction (%) 14 Days After Application, CYPES
[12] = DIGSA: crabgrass (Digitaria sanguinalis), read-out: Visual Growth Reduction (%) 14 Days After Application, DIGSA
[13] = ECHCG: barnyardgrass (Echinochloa crus-galli), read-out: Visual Growth Reduction (%) 14 Days After Application, ECHCG
[14] = ORYSA: rice (Oryza sativa), read-out: Visual Growth Reduction (%) 14 Days After Application, ORYSA
[15] = SETFA: giant foxtail (Setaria faberi), read-out: Visual Growth Reduction (%) 14 Days After Application, SETFA
[16] = SORVU: grain sorghum (Sorghum vulgare), read-out: Visual Growth Reduction (%) 14 Days After Application, SORVU
[17] = ZEAMX: maize, corn (Zea mays), read-out: Visual Growth Reduction (%) 14 Days After Application, ZEAMX

Row | SMILES | pest or weed control at 70 g/ha [1, 3] | pest or weed control at 140 g/ha [1, 3] | pest or weed control at 70 g/ha [1, 4] | pest or weed control at 140 g/ha [1, 4] | pest or weed control at 70 g/ha [1, 5] | pest or weed control at 140 g/ha [1, 5] | pest or weed control at 70 g/ha [1, 6] | pest or weed control at 140 g/ha [1, 6] | pest or weed control at 70 g/ha [1, 7] | pest or weed control at 140 g/ha [1, 7] | pest or weed control at 70 g/ha [1, 8] | pest or weed control at 140 g/ha [1, 8] | pest or weed control at 70 g/ha [1, 9] | pest or weed control at 140 g/ha [1, 9] | pest or weed control at 70 g/ha [2, 10] | pest or weed control at 140 g/ha [2, 10] | pest or weed control at 70 g/ha [2, 11] | pest or weed control at 140 g/ha [2, 11] | pest or weed control at 70 g/ha [2, 12] | pest or weed control at 140 g/ha [2, 12] | also measured
1 | C#Cc1ccc(-c2nc(C(=O)OC)c(C=C)c(N)c2F)cc1 [Compound 60, methyl 4-amino-6-(4-ethynylphenyl)-5-fluoro-3-vinylpicolinate] | 0 to 29% | 0 to 29% | 0 to 29% | 0 to 29% | 0 to 29% | 0 to 29% | 0 to 29% | 0 to 29% | 0 to 29% | 0 to 29% | 45 to 59% | 75 to 84% | 0 to 29% | 0 to 29% | 0 to 29% | 0 to 29% | 0 to 29% | 0 to 29% | 0 to 29% | 0 to 29% | pest or weed control at 70 g/ha [2, 13]: 0 to 29%; pest or weed control at 140 g/ha [2, 13]: 0 to 29%; pest or weed control at 70 g/ha [2, 14]: 0 to 29%; pest or weed control at 140 g/ha [2, 14]: 0 to 29%; pest or weed control at 70 g/ha [2, 15]: 0 to 29%; pest or weed control at 140 g/ha [2, 15]: 0 to 29%; pest or weed control at 70 g/ha [2, 16]: 0 to 29%; pest or weed control at 140 g/ha [2, 16]: 0 to 29%; pest or weed control at 70 g/ha [2, 17]: 0 to 29%; pest or weed control at 140 g/ha [2, 17]: 0 to 29%
2 | C=Cc1c(C(=O)O)nc(-c2ccc(C(F)(F)F)c(F)c2F)c(F)c1N [Compound 61] | 85 to 94% | 95 to 100% | 95 to 100% | 95 to 100% | 0 to 29% | 0 to 29% | 75 to 84% | 85 to 94% | 95 to 100% | 95 to 100% | 95 to 100% | 95 to 100% | 0 to 29% | 0 to 29% | 30 to 44% | 30 to 44% | 45 to 59% | 45 to 59% | 0 to 29% | 0 to 29% | pest or weed control at 70 g/ha [2, 13]: 45 to 59%; pest or weed control at 140 g/ha [2, 13]: 60 to 74%; pest or weed control at 70 g/ha [2, 14]: 0 to 29%; pest or weed control at 140 g/ha [2, 14]: 0 to 29%; pest or weed control at 70 g/ha [2, 15]: 0 to 29%; pest or weed control at 140 g/ha [2, 15]: 0 to 29%; pest or weed control at 70 g/ha [2, 16]: 45 to 59%; pest or weed control at 140 g/ha [2, 16]: 60 to 74%; pest or weed control at 70 g/ha [2, 17]: 60 to 74%; pest or weed control at 140 g/ha [2, 17]: 60 to 74%
